# Experimental data reported in patent publication US9511052B2, “Mineralocorticoid receptor antagonists” (Merck Sharp & Dohme Corp., priority 2012, dated 2016).
# Molecular target: T1, full-length human Mineralocorticoid Receptor (MR) (Homo sapiens, UniProt P08235)
# T1 construct: host or cells: PathHunter CHO-K1 MR cells
# T1 sequence (P08235 1-984): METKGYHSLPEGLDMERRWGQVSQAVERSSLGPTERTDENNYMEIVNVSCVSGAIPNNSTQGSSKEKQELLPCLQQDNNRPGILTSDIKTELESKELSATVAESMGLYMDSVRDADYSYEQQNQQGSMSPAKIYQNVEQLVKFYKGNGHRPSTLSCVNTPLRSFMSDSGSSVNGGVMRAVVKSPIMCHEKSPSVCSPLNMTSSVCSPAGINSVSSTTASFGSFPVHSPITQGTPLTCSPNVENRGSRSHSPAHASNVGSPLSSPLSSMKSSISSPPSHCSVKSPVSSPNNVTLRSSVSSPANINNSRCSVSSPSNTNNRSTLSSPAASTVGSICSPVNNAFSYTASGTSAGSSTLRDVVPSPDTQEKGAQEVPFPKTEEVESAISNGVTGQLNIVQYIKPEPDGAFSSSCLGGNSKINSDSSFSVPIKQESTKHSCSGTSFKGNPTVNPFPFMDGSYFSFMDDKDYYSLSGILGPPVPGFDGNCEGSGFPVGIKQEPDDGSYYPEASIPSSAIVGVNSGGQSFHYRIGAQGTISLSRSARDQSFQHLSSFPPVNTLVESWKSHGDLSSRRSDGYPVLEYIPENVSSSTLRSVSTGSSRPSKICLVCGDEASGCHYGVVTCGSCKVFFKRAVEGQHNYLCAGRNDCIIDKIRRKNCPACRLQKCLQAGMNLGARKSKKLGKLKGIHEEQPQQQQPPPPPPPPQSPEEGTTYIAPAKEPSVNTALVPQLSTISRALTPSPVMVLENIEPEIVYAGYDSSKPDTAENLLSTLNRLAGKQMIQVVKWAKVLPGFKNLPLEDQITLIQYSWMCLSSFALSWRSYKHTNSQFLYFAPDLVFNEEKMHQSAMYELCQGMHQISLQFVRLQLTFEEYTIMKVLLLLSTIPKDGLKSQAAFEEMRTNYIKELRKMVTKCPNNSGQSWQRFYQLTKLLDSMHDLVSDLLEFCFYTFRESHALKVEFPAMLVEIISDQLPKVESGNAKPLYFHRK
# Experiment: human MR NH Pro assay (PathHunter Protein:Protein interaction assay), MR antagonism
# Format: cell-based
# Settings: IP = inflection point of the dose-response curve; CHO-K1 cells overexpressing human MR, aldosterone about 0.3 nM to about 1 nM, 6 hours at 37° C.
# Excerpt: The activity of the compounds of the present invention regarding mineralocorticoid receptor antagonism can be evaluated using the following assay.
# Assessment of MR Potency in HMR NH Pro Assay
# The human MR NH Pro assay is a commercially available PathHunter™ Protein:Protein interaction assay (DiscoveRx; http://www.discoverx.com/nhrs/prod-nhrs.php) that measures the ability of compounds to antagonize full-length human Mineralocorticoid Receptor (MR) binding to a coactivator peptide.
# Stock solution was prepared at 10 μM in DMSO and stored at −20° C. for assay, dilute in assay media to 1.8 or 6 nM (6× of final concentration=about 0.3 nM to about 1.0 nM)
# 5. Cell line: PathHunter CHO-K1 MR cells Cat #93-0456C2, Lot No: 09B0913, from operation liquid nitrogen stock.
# 6. Control Antagonist: Spironolactone: Sigma #S-3378 and Eplerenone Sigma #107724-20-9 (10 mM stock concentration also prepared in DMSO and stored at −20° C.).
# 1. Cells are grown in F12+FBS+Hygromycin+pen/strep+Genetin
# 2. Cells are collected with 0.05% trypsin and the cell suspension is spun and resuspended in a volume of F12+1.5% CD-FBS and counted.
# 3. The cells concentration was adjusted to 4×10^5 cells/mL.
# 4. Cells were (25 μL/well) added to the wells of a 384 well plate.
# 5. The plate was then incubated at 37° C. over night in a humidified incubator with 5% CO2.
# 6. Test compounds were titrated starting at 4.4 mM, 10-point titration in 1:3 dilution.
# Protocol for 384 well plate format: 6 hr treatment:
# 1. 10K exponentially growing cells/well (25 μL) were resuspended in assay media and plated into each well using the Multidrop (Thermo Electron) (use white wall, clear bottom assay plates (Costar #3570) and incubated overnight at 37° C., 5% CO2.
# 2. 0.25 μL 120× test compound (final DMSO concentration should be <1%) was added to each well n=2, 10 point titrations starting at 36.7 μM final concentration.
# 4. 5 μL of assay media was added to all wells in column 23 and 24.
# 5. Cells were then incubated for 6 hrs at 37° C., 5% CO2.
# 6. 15 μL 3× DiscoveRx detection reagent was then added to each well.
# 7. Plates were incubated for 1 hour at room temperature in the dark.
# 8. Plates were read on Envision (PerkinElmer) luminesence plate reader and analyzed using ADA.
row,IC50 [nM],Compound
1,4,"CCC(c1ccc(C(F)(F)F)cc1)(C(O)C(F)F)n1ncc2c(NS(=O)(=O)CC)cccc21 (single isomer, unassigned) [Compound 50, N-(1-(1,1-difluoro-2-hydroxy-3-(4-(trifluoromethyl)phenyl)pentan-3-yl)-1H-indazol-4-yl)ethanesulfonamide]"
2,43,"CCS(=O)(=O)Nc1cccc2c1cnn2C(CC(F)F)(c1ccc(C(F)(F)F)cc1)C(C)O (single isomer, unassigned) [Compound 57, N-(1-(1,1-difluoro-4-hydroxy-3-(4-(trifluoromethyl)phenyl)pentan-3-yl)-1H-indazol-4-yl)ethanesulfonamide]"
3,4740,"CCC(c1ccc(S(F)(F)(F)(F)F)cc1)(C(C)O)n1ncc2c(NS(C)(=O)=O)cccc21 (single isomer, unassigned) [Compound 23, N-(1-{2-hydroxy-3-[4-(pentafluoro-λ^6-sulfanyl)phenyl]pentan-3-yl}-1H-indazol-4-yl)methanesulfonamide]"
4,136,"CCC(O)C(CC)(c1ccc(C#N)cc1)n1ncc2c(NS(C)(=O)=O)cc(F)cc21 (single isomer, unassigned) [Compound 19]"
5,9,"CCC(O)C(CC)(c1ccc(C(F)(F)F)cc1)n1ncc2c(NS(C)(=O)=O)cc(F)cc21 (single isomer, unassigned) [Compound 18, N-(6-fluoro-1-(4-hydroxy-3-(4-(trifluoromethyl)phenyl)hexan-3-yl)-1H-indazol-4-yl)methanesulfonamide]"
6,7,"CCC(c1ccc(C(F)(F)F)cc1)(C(O)C(F)F)n1ncc2c(NS(=O)(=O)CC)cccc21 (single isomer, unassigned) [Compound 49, N-(1-(1,1-difluoro-2-hydroxy-3-(4-(trifluoromethyl)phenyl)pentan-3-yl)-1H-indazol-4-yl)ethanesulfonamide]"
7,27,"CCC(c1ccc(C(F)(F)F)cc1)(C(C)O)n1ncc2c(NS(C)(=O)=O)cc(F)cc21 (single isomer, unassigned) [Compound 32, N-(6-fluoro-1-(2-hydroxy-3-(4-(trifluoromethyl)phenyl)pentan-3-yl)-1H-indazol-4-yl)methanesulfonamide]"
8,38,"CCS(=O)(=O)Nc1cccc2c1cnn2C(CC(F)F)(c1ccc(C(F)(F)F)cc1)C(C)O (single isomer, unassigned) [Compound 58, N-(1-(1,1-difluoro-4-hydroxy-3-(4-(trifluoromethyl)phenyl)pentan-3-yl)-1H-indazol-4-yl)ethanesulfonamide]"
9,1110,"CCC(c1ccc(C(F)(F)F)cc1)(C(C)O)n1ncc2c(NS(C)(=O)=O)cc(F)cc21 (single isomer, unassigned) [Compound 33, N-(6-fluoro-1-(2-hydroxy-3-(4-(trifluoromethyl)phenyl)pentan-3-yl)-1H-indazol-4-yl)methanesulfonamide]"
10,1130,"CCC(O)C(CC)(c1ccc(S(F)(F)(F)(F)F)cc1)n1ncc2c(NS(C)(=O)=O)cccc21 (single isomer, unassigned) [Compound 26, N-(1-{4-hydroxy-3-[4-(pentafluoro-λ^6-sulfanyl)phenyl]hexan-3-yl}-1H-indazol-4-yl)methanesulfonamide]"
11,539,"CS(=O)(=O)Nc1cccc2c1cnn2C(CO)(CC(F)F)c1ccc(C(F)(F)F)cc1 (single isomer, unassigned) [Compound 44, N-(1-(4,4-difluoro-l-hydroxy-2-(4-(trifluoromethyl)phenyl)butan-2-yl)-1H-indazol-4-yl)methanesulfonamide]"
12,333,"CCC(c1ccc(S(F)(F)(F)(F)F)cc1)(C(C)O)n1ncc2c(NS(C)(=O)=O)cccc21 (single isomer, unassigned) [Compound 21, N-(1-{2-hydroxy-3-[4-(pentafluoro-λ^6-sulfanyl)phenyl]pentan-3-yl}-1H-indazol-4-yl)methanesulfonamide]"
13,388,"CS(=O)(=O)Nc1cccc2c1cnn2C(CO)(CC(F)F)c1ccc(C(F)(F)F)cc1 (single isomer, unassigned) [Compound 43, N-(1-(4,4-difluoro-1-hydroxy-2-(4-(trifluoromethyl)phenyl)butan-2-yl)-1H-indazol-4-yl)methanesulfonamide]"

# Second part, the molecule before the results:
row,Compound,IC50 [nM]
1,"CCC(c1ccc(Br)cc1)(C(C)O)n1ncc2c(NS(C)(=O)=O)cccc21 (single isomer, unassigned) [Compound 4, N-(1-(3-(4-bromophenyl)-2-hydroxypentan-3-yl)-1H-indazol-4-yl) methanesulfonamide]",728
2,"CCC(O)C(CC)(c1ccc(Br)cc1)n1ncc2c(NS(C)(=O)=O)cccc21 (single isomer, unassigned) [Compound 5, N-(1-(3-(4-bromophenyl)-4-hydroxyhexan-3-yl)-1H-indazol-4-yl)methanesulfonamide]",8
3,"CCC(O)C(CC)(c1ccc(C(F)(F)F)cc1)n1ncc2c(NS(C)(=O)=O)cccc21 (single isomer, unassigned) [Compound 10, N-(1-(4-hydroxy-3-(4-(trifluoromethyl)phenyl)hexan-3-yl)-1H-indazol-4-yl)methanesulfonamide]",5
4,"CCC(c1ccc(Br)cc1)(C(C)O)n1ncc2c(NS(C)(=O)=O)cccc21 (single isomer, unassigned) [Compound 1, N-(1-(3-(4-bromophenyl)-2-hydroxypentan-3-yl)-1H-indazol-4-yl) methanesulfonamide]",10
5,"CCC(O)C(CC)(c1ccc(Br)cc1)n1ncc2c(NS(C)(=O)=O)cccc21 (single isomer, unassigned) [Compound 6, N-(1-(3-(4-bromophenyl)-4-hydroxyhexan-3-yl)-1H-indazol-4-yl)methanesulfonamide]",3
6,"CCC(CO)(c1ccc(C(F)(F)F)cc1)n1ncc2c(NS(C)(=O)=O)cccc21 (single isomer, unassigned) [Compound 11, N-(1-(1-hydroxy-2-(4-(trifluoromethyl)phenyl)butan-2-yl)-1H-indazol-4-yl)methanesulfonamide]",60
7,"CCC(O)C(CC)(c1ccc(C#N)cc1)n1ncc2c(NS(C)(=O)=O)cccc21 (single isomer, unassigned) [Compound 16, N-(1-(3-(4-cyanophenyl)-4-hydroxyhexan-3-yl)-1H-indazol-4-yl)methanesulfonamide]",48
8,"CCC(O)C(CC)(c1ccc(C(F)(F)F)cc1)n1ncc2c(NS(C)(=O)=O)cc(F)cc21 (single isomer, unassigned) [Compound 17, N-(6-fluoro-1-(4-hydroxy-3-(4-(trifluoromethyl)phenyl)hexan-3-yl)-1H-indazol-4-yl)methanesulfonamide]",21
9,"CCC(O)C(CC)(c1ccc(Br)cc1)n1ncc2c(NS(C)(=O)=O)cccc21 (single isomer, unassigned) [Compound 8, N-(1-(3-(4-bromophenyl)-4-hydroxyhexan-3-yl)-1H-indazol-4-yl)methanesulfonamide]",1190
